The text below walks through data of PMC12031583 (Toxins, 2025).

Several values for one entry are separate records, joined by “and”; a condition that tells them apart may be missing. Equal entries are not always repeated. Where two headings read alike, the source gives them in different places.

The target of data set [1] is T1, α1-acid glycoprotein (AGP) (Homo sapiens, UniProt P02763). The conditions noted are these: for effect on fluorescence emission signal of AGP / logK FL Quenching: pH 7.4.
T1 sequence (P02763 19-201 limits assumed): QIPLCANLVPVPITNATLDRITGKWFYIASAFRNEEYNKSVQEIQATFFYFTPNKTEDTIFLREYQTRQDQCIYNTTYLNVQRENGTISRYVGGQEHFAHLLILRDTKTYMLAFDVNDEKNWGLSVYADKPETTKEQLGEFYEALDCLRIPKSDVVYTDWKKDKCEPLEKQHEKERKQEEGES
For data set [2], the target named is casein (CSN, bovine). The class given is binding. The conditions noted are these: pH 6.8.
The target of data set [3] is T2, β-lactoglobulin (LG, bovine) (Bos taurus, UniProt P02754). Kind of data set: biochemical. It is filed as binding.
T2 sequence (P02754 17-178 limits assumed): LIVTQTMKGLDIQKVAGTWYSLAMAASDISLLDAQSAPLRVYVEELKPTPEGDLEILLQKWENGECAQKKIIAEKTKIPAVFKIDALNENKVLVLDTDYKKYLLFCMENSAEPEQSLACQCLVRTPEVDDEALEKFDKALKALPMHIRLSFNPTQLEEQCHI
Data set [4] addresses T3, α-lactalbumin (LA, bovine) (Bos taurus, UniProt P00711). Kind of data set: biochemical. It is filed as binding.
The test system of data set [5] is casein (CSN, bovine). The class given is binding. The conditions noted are these: pH 6.8. This is another data set of the same source.
Data set [6] deals with T3, α-lactalbumin (LA, bovine). The class given is binding. Conditions: pH 6.8.
The target in data set [7] is T4, bovine serum albumin (BSA) (Bos taurus, UniProt P02769).
T4 sequence (P02769 25-607 limits assumed): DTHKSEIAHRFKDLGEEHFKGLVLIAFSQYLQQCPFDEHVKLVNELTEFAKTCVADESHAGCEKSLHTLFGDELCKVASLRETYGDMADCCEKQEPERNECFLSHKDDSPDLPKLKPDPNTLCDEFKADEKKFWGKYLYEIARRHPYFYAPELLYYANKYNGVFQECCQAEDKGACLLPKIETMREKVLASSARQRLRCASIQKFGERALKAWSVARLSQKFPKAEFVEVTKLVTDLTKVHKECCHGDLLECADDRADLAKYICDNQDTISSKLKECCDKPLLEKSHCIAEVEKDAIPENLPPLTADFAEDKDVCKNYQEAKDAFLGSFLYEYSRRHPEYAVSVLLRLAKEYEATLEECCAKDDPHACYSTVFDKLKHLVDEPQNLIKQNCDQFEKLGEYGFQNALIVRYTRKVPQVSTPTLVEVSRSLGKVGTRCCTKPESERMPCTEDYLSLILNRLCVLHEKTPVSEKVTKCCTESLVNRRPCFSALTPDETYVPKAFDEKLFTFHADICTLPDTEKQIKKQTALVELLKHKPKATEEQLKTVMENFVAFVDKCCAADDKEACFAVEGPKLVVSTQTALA
Data set [8] concerns the target T4, bovine serum albumin (BSA). Conditions: cited from earlier work.
The target in data set [9] is T1, α1-acid glycoprotein (AGP). The class given is binding.
Data set [10] addresses T1, α1-acid glycoprotein (AGP). Conditions: for logK FL Enhancement: pH 7.4.
The target of data set [11] is T1, α1-acid glycoprotein (AGP). The conditions noted are these: pH 7.4.
Data set [12] concerns human serum albumin (HSA). The conditions noted are these: cited from earlier work.
In data set [13] the target is T4, bovine serum albumin (BSA). The data set can be described thus: biochemical. The conditions noted are these: logK BSA.
Data set [14] addresses T2, β-lactoglobulin (LG, bovine). The class given is binding. The conditions noted are these: pH 6.8.
Data set [15] deals with T1, α1-acid glycoprotein (AGP). Kind of data set: in vitro.
In data set [16] the target is T1, α1-acid glycoprotein (AGP). Kind of data set: in vitro. This is another data set of the same source.
Data set [17] concerns the target T1, α1-acid glycoprotein (AGP). Kind of data set: in vitro. The conditions noted are these: pH 7.4.

T3 sequence (P00711 20-142 limits assumed): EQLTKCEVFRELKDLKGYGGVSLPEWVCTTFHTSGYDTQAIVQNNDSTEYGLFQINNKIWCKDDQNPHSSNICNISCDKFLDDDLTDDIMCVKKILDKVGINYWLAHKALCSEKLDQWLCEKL

As for `CC(=O)C1=C(O)[C@@H]2[C@H]3c4c[nH]c5cccc(c45)C[C@H]3C(C)(C)N2C1=O` [CPA, cyclopiazonic acid], the “effect on fluorescence emission signal of AGP” value (shortened to “effect … of AGP”) in [1] is “no or only minor decreases”.

Turning to aflatoxin B1 [AFB1], the “logK CSN” value on casein (CSN, bovine) [2] is 3.3 and 3.34 ± 0.03. Also, the “effect of LG on mycotoxin level (free fraction) in supernatant” value in data set [3] (pH 6.8) is “did not modify”. The “effect of LA on mycotoxin level (free fraction) in supernatant” value in [4] (pH 6.8) is listed as “did not modify”. Besides, in the data set on casein (CSN, bovine) [5], the “effect on fluorescence emission signal of CSN” value is recorded as “slight decreases”. Besides, in data set [6], the “quenching effect on fluorescence emission signal of LA” value (“quenching effect” below) is on record as “slight”. Besides, the “effect … of AGP” value in data set [1] is recorded as “no or only minor decreases”. Also, the “logK BSA” value in data set [7] (pH 6.8) was 4.1 and 4.11 ± 0.02. In addition, the “logK of AFB1–BSA” value in data set [8] was “≈ 4.5”.

`O=C1C=C2C(=CCOC2O)O1` (centres unmarked) [PAT, patulin]: the “effect … of AGP” value in data set [1] is “no or only minor decreases”.

Consider `C[C@H]1CCC[C@H](O)CCC/C=C/c2cc(O)cc(O)c2C(=O)O1` [α-ZEL, α-zearalenol], for which, in data set [9], the “binding constant (K) of mycotoxin–AGP complex” value was “approximately 3 × 10^5 L/mol” and the “fold higher affinity to AGP compared to HSA” value was around 5 fold. In addition, at casein (CSN, bovine) [2], the “logK CSN” value is 3.54 ± 0.01. In [3] (pH 6.8), the “logK LG” value amounted to 3.35 ± 0.03. Besides, the “logK LA” value in [4] (pH 6.8) turned out to be 2.92 ± 0.06. For the same compound, the “effect on fluorescence emission signal of CSN” value in the data set on casein (CSN, bovine) [5] was “slight decreases”. Besides, the “quenching effect” value in data set [6] was “slight”. Besides, in [1], the “logK ± SEM 1. (FL quenching)” value is given as 5.57 ± 0.07, the “logK ± SEM 2. (FL quenching)” value is 5.67 ± 0.05, the “logK ± SEM 3. (FL quenching)” value worked out at 5.70 ± 0.06 and the “logK FL Quenching” value was 5.65 ± 0.04. Also, in data set [10], the “logK ± SEM 1. (FL enhancement)” value was found to be 5.46 ± 0.06, the “logK ± SEM 2. (FL enhancement)” value was 5.46 ± 0.08, the “logK ± SEM 3. (FL enhancement)” value came out at 5.62 ± 0.07 and the “logK FL Enhancement” value is given as 5.51 ± 0.05. The “logK Ultracentrifugation” value in [11] is given as 5.48 ± 0.07. Also, in data set [7], the “fold higher affinity (binding constant) to BSA vs CSN” value (“fold higher affinity … vs CSN” for short) was “approximately 20 fold”. Besides, the “logK of complex with HSA” value in data set [12] was 4.7. Further, the “logK of ZEN–BSA and α-ZEL–BSA complexes” value in [8] is listed as 4.5.

Regarding `COc1cc2c(c3oc4cccc(O)c4c(=O)c13)[C@@H]1C=CO[C@@H]1O2` [STC, sterigmatocystin], the “effect of CSN on mycotoxin level (free fraction) in supernatant” value in the data set on casein (CSN, bovine) [2] was “not influenced”. In addition, the “effect of LG on mycotoxin level (free fraction) in supernatant” value in data set [3] (pH 6.8) is “not influenced”. For the same compound, the “effect of LA on mycotoxin level (free fraction) in supernatant” value in data set [4] (pH 6.8) is “not influenced”. In data set [1], the “effect … of AGP” value was “larger, concentration-dependent decreases”. Further, the “K value of STC–HSA complex” value in data set [12] is on record as “≈ 2 × 10^4 L/mol”. Besides, the Kd (in general, the free concentration of one partner at which half of the binding sites on the other are occupied at equilibrium, for simple one-to-one binding) in data set [13] is 100 µM and 105 µM.

Take `CC(=O)OC[C@]12C[C@H](OC(=O)CC(C)C)C(C)=C[C@H]1O[C@@H]1[C@H](O)[C@@H](OC(C)=O)[C@@]2(C)[C@]12CO2` [T2, T-2 toxin]: the “effect on fluorescence emission signal of LG” value in data set [14] was “minor increase”. The “effect … of AGP” value in data set [1] is “no or only minor decreases”.

As to aflatoxin M1 [AFM1], the “logK CSN” value on casein (CSN, bovine) [2] came out at 2.70 ± 0.08. Also, the “effect of LG on mycotoxin level (free fraction) in supernatant” value in data set [3] (pH 6.8) is given as “did not show interactions”. For the same compound, in [4] (pH 6.8), the “effect of LA on mycotoxin level (free fraction) in supernatant” value is given as “did not show interactions”. In addition, in [7], the “fold higher affinity … vs CSN” value is given as 10 fold. The “logK BSA” value in data set [7] (pH 6.8) came out at 3.80 ± 0.03.

For the compound `CCCC[C@@H](C)[C@@H](OC(=O)C[C@@H](CC(=O)O)C(=O)O)[C@H](C[C@@H](C)C[C@H](O)CCCC[C@@H](O)C[C@H](O)[C@H](C)N)OC(=O)C[C@@H](CC(=O)O)C(=O)O` [FB1, fumonisin B1], in [1], the “effect … of AGP” value is on record as “no or only minor decreases”.

In the case of `CC1=C[C@H]2O[C@@H]3[C@H](O)C[C@](C)([C@@]2(CO)[C@H](O)C1=O)[C@]31CO1` [DON, deoxynivalenol], the “effect … of AGP” value in data set [1] is “no or only minor decreases”.

For the compound `C[C@H]1CCCC(=O)CCC/C=C/c2cc(O)cc(O)c2C(=O)O1` [ZEN, zearalenone], the “logK CSN” value at casein (CSN, bovine) [2] was 3.48 ± 0.01. The Kd is 891 µM in data set [3]; 1620 µM in data set [4]; 1.26 µM in [15] (pH 7.4, logK FL Quenching); 1.35 µM in data set [15] (pH 7.4, logK ± SEM 1. (FL quenching)); 1.45 µM in data set [15] (pH 7.4, logK ± SEM 2. (FL quenching)); 1 µM in data set [15] (pH 7.4, logK ± SEM 3. (FL quenching)). The Kd in data set [16] (pH 7.4, logK FL Enhancement) was 0.525 µM; in [16] (pH 7.4, logK ± SEM 1. (FL enhancement)) it was 0.661 µM; in [16] (pH 7.4, logK ± SEM 2. (FL enhancement)), 0.407 µM; in data set [16] (pH 7.4, logK ± SEM 3. (FL enhancement)), 0.55 µM; in data set [17], 0.372 µM; in [13] it was 15.8 µM and 16.2 µM. Besides, the “quenching effect” value in data set [6] is on record as “slight”. The “effect … of AGP” value in data set [1] is recorded as “larger, concentration-dependent decreases”. Moreover, the “fold higher affinity … vs CSN” value in [7] (bovine, ultracentrifugation, pH 6.8) is “approximately 20 fold”. Moreover, the “logK of complex with HSA” value in data set [12] was 5.1. For the same compound, the “logK of ZEN–BSA and α-ZEL–BSA complexes” value in data set [8] is recorded as 4.8.

With `C[C@H]1CCC[C@@H](O)CCC/C=C/c2cc(O)cc(O)c2C(=O)O1` [β-ZEL, β-zearalenol], in data set [9], the “binding constant (K) of mycotoxin–AGP complex” value was around 600000 L/mol and the “fold higher affinity to AGP compared to HSA” value is reported as around 30 fold. Moreover, in data set [1], the “logK ± SEM 1. (FL quenching)” value was determined as 5.76 ± 0.06, the “logK ± SEM 2. (FL quenching)” value is 5.82 ± 0.09, the “logK ± SEM 3. (FL quenching)” value was 5.76 ± 0.08 and the “logK FL Quenching” value was 5.78 ± 0.02. In [10], the “logK ± SEM 1. (FL enhancement)” value was 5.83 ± 0.04, the “logK ± SEM 2. (FL enhancement)” value is recorded as 5.94 ± 0.16, the “logK ± SEM 3. (FL enhancement)” value came out at 6.04 ± 0.11 and the “logK FL Enhancement” value worked out at 5.94 ± 0.06. In addition, the “logK Ultracentrifugation” value in data set [11] stood at 5.73 ± 0.02. Besides, in data set [12], the “logK of complex with HSA” value is on record as 4.3.

Turning to `CC1=C2C(=CO[C@H](C)[C@H]2C)C(O)=C(C(=O)O)C1=O` [CIT, citrinin], the “effect … of AGP” value in [1] was “no or only minor decreases”.

As for `Cc1cc(O)cc2oc(=O)c3c(O)cc(O)cc3c12` [AOH, alternariol], the “logK of OTA–BSA and AOH–BSA complexes” value in [8] is recorded as 5.9.

Consider `C[C@@H]1Cc2c(Cl)cc(C(=O)N[C@@H](Cc3ccccc3)C(=O)O)c(O)c2C(=O)O1` [OTA, ochratoxin A], for which the “effect on fluorescence emission signal of CSN” value in the data set with casein (CSN, bovine) [5] is recorded as “slight decreases”. For the same compound, the “quenching effect” value in data set [6] is on record as “slight”. The “effect … of AGP” value in [1] is on record as “no or only minor decreases”. Moreover, in data set [8], the “logK of OTA–BSA and AOH–BSA complexes” value is 6.5.
